In ChEMBL document CHEMBL1201862, “PubChem BioAssay data set” (2004):
Activity calls are given as the source filed them.

How the values were obtained:
[1] = Luminescence-based counterscreen assay for KLF5 inhibitors: dose response cell-based high throughput screening assay to identify cytotoxic compounds using the IEC-6 intestinal epithelial cell line. [Related pubchem assays: 1700 (Primary screen.), 1834 (Confirmation screen.), 1858 (Summary AID.), 1905 (Counterscreen.)]; assay type: functional
[2] = Shn3 3'UTR reporter inhibitors, dose response, cell-based, Clone20 osteoblasts, firefly luciferase, cherry-picked (AID 624132); assay type: functional;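 also: firefly luciferase luminescence from reporter carrying the Shn3 3'UTR in osteoblasts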
[3] = cytotoxicity in HEK-293T cells, dose response, cytotoxicity control for TCR NF-kB inhibitor project, luminescence, T-cell screen hits (AID 489026); assay type: functional, cell-based;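 also: cells exposed to compound about 14 hours before the viability readout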
[4] = HepG2 cell cytotoxicity, dose response, cytotoxicity control for Shn3 inhibitor project, CellTiter-Glo, cherry-picked (AID 624134); assay type: functional, cell-based
[5] = reduction of Shn3 3'UTR firefly luciferase signal, dose response, Schnurri-3 inhibitor project, cell-based, Clone20 osteoblasts, cherry-pick, set 2 (AID 720490); assay type: functional;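 also: actives lower the luminescence signal as inhibitors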
Protein skinhead-1 = target: T1, Protein skinhead-1 (Caenorhabditis elegans, UniProt P34707); assay type: functional
T1 sequence (P34707 whole entry): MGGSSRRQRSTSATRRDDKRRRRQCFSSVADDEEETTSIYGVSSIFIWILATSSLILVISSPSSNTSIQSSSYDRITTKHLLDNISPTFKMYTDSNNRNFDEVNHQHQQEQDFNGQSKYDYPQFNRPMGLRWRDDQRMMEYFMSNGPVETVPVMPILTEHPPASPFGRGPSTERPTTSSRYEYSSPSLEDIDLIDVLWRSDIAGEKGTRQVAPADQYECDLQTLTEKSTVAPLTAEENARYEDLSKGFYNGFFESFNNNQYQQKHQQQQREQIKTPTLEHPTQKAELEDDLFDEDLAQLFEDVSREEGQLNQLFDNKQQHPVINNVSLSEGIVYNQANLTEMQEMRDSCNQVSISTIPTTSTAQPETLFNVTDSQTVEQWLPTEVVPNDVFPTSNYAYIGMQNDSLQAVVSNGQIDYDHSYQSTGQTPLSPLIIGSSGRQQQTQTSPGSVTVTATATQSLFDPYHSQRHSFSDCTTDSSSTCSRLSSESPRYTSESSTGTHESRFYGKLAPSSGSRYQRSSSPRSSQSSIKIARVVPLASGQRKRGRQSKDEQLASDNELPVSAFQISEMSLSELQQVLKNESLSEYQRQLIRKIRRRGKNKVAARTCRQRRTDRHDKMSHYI

[6] = target: Signal transducer and activator of transcription 3 (Homo sapiens, UniProt P40763); test: STAT3 activators, late-stage profile, late-stage follow-up, cell-based, STAT1 reporter, BCL3 qPCR, cytotoxicity, panel member STAT3 Activation (AID 2049)
[7] = target: T2, Intestinal-type alkaline phosphatase (Homo sapiens, UniProt P09923); test: human intestinal alkaline phosphatase activators, dose response, biochemical, luminescence, uHTS hits (AID 463120); assay type: functional
[8] = target: Intestinal-type alkaline phosphatase (Mus musculus, UniProt P24822); test: PubChem AID 488874; assay type: functional
[9] = target: T3, Alkaline phosphatase, tissue-nonspecific isozyme (Homo sapiens, UniProt P05186); test: TNAP enzyme activators, dose response, selectivity assay for human IAP activator project, biochemical, TNAP isozyme, human IAP uHTS hits (AID 488886); assay type: functional;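 also: potency of compounds raising TNAP activity as a selectivity check on IAP activators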
T3 sequence (P05186 whole entry): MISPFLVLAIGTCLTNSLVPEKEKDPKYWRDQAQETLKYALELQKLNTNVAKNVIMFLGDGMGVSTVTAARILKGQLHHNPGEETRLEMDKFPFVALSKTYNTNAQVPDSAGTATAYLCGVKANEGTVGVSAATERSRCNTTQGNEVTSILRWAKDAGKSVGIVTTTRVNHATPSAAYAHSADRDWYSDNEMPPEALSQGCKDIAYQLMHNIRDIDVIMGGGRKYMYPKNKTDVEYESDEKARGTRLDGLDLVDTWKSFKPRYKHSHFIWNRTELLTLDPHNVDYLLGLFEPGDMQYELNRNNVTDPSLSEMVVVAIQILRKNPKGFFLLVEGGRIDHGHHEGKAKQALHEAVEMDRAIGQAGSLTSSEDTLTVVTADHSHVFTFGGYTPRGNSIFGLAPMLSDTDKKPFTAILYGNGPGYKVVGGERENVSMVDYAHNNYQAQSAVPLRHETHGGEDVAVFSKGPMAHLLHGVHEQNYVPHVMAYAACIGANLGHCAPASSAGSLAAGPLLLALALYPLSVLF

[10] = target: T2, Intestinal-type alkaline phosphatase; test: human IAP activators, dose response, biochemical, luminescent, uHTS hits, set 2 (AID 488817); assay type: functional;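 also: potency of activators that raise enzyme activity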
[11] = target: Neuropeptide Y receptor type 2 (Homo sapiens, UniProt P49146); test: Fluorescence-based cell-based high-throughput dose response assay for agonists of NPY-Y2. [Related pubchem assays: 1703 (Screening assay (CNGC inhibitors).), 1359 (Screening assay (NPY-Y2 potentiators or agonists).), 1304 (Screening assay (NPY-Y1 potentiators or agonists).), 1710 (Screening assay (NPY-Y2 agonists).), 1791 (Summary AID.)]; assay type: functional
[12] = target: Neuropeptide Y receptor type 1 (Homo sapiens, UniProt P25929); test: Fluorescence-based counterscreen for agonists of NPY-Y2: cell-based high-throughput dose response assay for agonists of NPY-Y1.; assay type: functional
HEK293 = test: Fluorescence-based counterscreen for potentiators or agonists of NPY-Y2: cell-based high-throughput dose response assay to identify inhibitors of cyclic nucleotide gated ion channel (CNGC) activity. In this assay, the parental HEK293 cell line transfected with a cyclic-nucleotide gated ion channel (CNGC)-based cAMP sensor is used to measure inhibition of isoproterenol-induced CNGC activity by test compound.; assay type: functional; conditions: Homo sapiens;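 also: stimulus is 1 µM isoproterenol at EC100 plus PDE inhibitor Ro 20-1724 at 25 µM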
[13] = target: Photoreceptor-specific nuclear receptor (Homo sapiens, UniProt Q9Y5X4); assay type: functional, cell-based;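 also: CHO-S cells with Gal4-NCOR and VP16-NR2E3 two-hybrid luciferase reporter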
Oxytocin receptor = Oxytocin receptor (Homo sapiens, UniProt P30559); test: Fluorescence-based cell-based high throughput dose response assay for agonists of the Oxytocin Receptor (OXTR). [Related pubchem assays: 2435 (Primary screen (OXTR agonists in singlicate)), 434991 (Counterscreen (V1R agonists in triplicate)), 2482 (Summary (OXTR agonists)), 434963 (Confirmation screen (OXTR agonists in triplicate))]; assay type: functional
Vasopressin V1a receptor = Vasopressin V1a receptor (Homo sapiens, UniProt P37288); test: Counterscreen for Oxytocin Receptor (OXTR) agonists: Fluorescence-based cell-based high throughput dose response assay to identify agonists of the vasopressin 1 receptor (V1R). [Related pubchem assays: 2435 (Primary screen (OXTR agonists in singlicate)), 434991 (Counterscreen (V1R agonists in triplicate)), 2482 (Summary (OXTR agonists)) …; assay type: functional
[14] = target: NACHT, LRR and PYD domains-containing protein 3 (Homo sapiens, UniProt Q96P20); test: NALP3 inhibitors in yeast, dose response, luminescent (AID 488799); assay type: functional
[15] = Luminescence Cell-Based Dose Response HTS to Identify Activators of Luciferase Translation or Activity in H4 […] Cells. [Related pubchem assays: 1829 (Project Summary), 1814 (Primary HTS)]; assay type: functional
[16] = Luminescence Cell-Based Dose Response HTS to Identify Activators of Luciferase Translation or Activity in H4-C Neuroglioblastoma Cells. [Related pubchem assays: 1829 (Project Summary), 1814 (Primary HTS)]; assay type: functional
[17] = Luminescence Cell-Based Dose Retest to Confirm Activators of 5'UTR Stem-Loop Driven Alpha-Synuclein mRNA Translation in H4 Neuroglioblastoma Cells. [Related pubchem assays (depositor defined):AID1813, AID1829]; assay type: functional
H4 = test: Luminescence Cell-Based Dose Response HTS to Identify Activators of 5'UTR Stem-Loop Driven Prion Protein mRNA Translation in H4 Neuroglioblastoma Cells. [Related pubchem assays: 1829 (Project Summary), 1814 (Primary HTS)]; assay type: functional; conditions: Homo sapiens
[18] = Luminescence Cell-Based Dose Response HTS to Identify Activators of 5'UTR Stem-Loop Driven Prion Protein mRNA Translation in H4-C Neuroglioblastoma Cells. [Related pubchem assays: 1829 (Project Summary), 1814 (Primary HTS)]; assay type: functional
[19] = Luminescence Cell-Based Dose Confirmation HTS to Identify Activators of 5'UTR Stem-Loop Driven Alpha-Synuclein mRNA Translation in H4 Neuroglioblastoma Cells. [Related pubchem assays: 1829 (Project Summary), 1814 (Primary HTS)]; assay type: functional
Bcl-2-like protein 10 = Bcl-2-like protein 10 (Homo sapiens, UniProt Q9HD36); test: displacers of TR3 peptide from Bcl-B, primary screen, selectivity assay for Bfl-1 inhibitor project, biochemical, fluorescence polarization, FITC-TR3 peptide (AID 748);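 also: fluorescence polarization from a fluorescein-labelled TR3 peptide binding purified Bcl-B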
[20] = inhibitors of SNCA 5'UTR-driven translation, confirmation, luminescence, H4 neuroglioblastoma cells, dose confirmation (AID 2454); assay type: functional, cell-based;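 also: H4 neuroglioblastoma cells carrying an alpha-synuclein 5'UTR luciferase reporter; potency for inhibition of the luciferase signal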
cells = assay type: functional, cell-based
[21] = inhibitors of SNCA 5'UTR-driven reporter translation, confirmation, H4 neuroglioma cells, luminescence (AID 1988); assay type: functional, cell-based
[22] = Luminescence Cell-Based Dose Response HTS to Identify Inhibitors of 5'UTR Stem-Loop Driven Prion Protein mRNA Translation in H4 Neuroglioblastoma Cells. [Related pubchem assays: 1827 (Project Summary), 1813 (Primary HTS)]; assay type: functional
[23] = luciferase reporter signal reduction – luminescence, H4-C neuroglioblastoma cells, dose response (AID 2458); assay type: functional, cell-based;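 also: H4 neuroglioblastoma cells stably carrying a luciferase reporter gene fusion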
[24] = inhibitors of firefly luciferase expression or activity, dose response, H4 neuroglioma cells, luminescence (AID 1990); assay type: functional, cell-based
Cytochrome P450 3A4 = Cytochrome P450 3A4 (Homo sapiens, UniProt P08684); conditions: Potency;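 also: confirmatory qHTS run detecting inhibitors and substrates of CYP3A4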
[25] = target: Lysosomal acid glucosylceramidase (Homo sapiens, UniProt P04062); test: Dose response cell-based high throughput screening assay to identify enhancers of beta-glucosidase activity. [Related pubchem assays: 784 ]; assay type: functional
[26] = target: T4, Heat shock factor protein 1 (Mus musculus, UniProt P38532); test: inhibition of MG132-induced HSE-luciferase signal, confirmation, cell-based, NIH3T3, luminescence, dose retest (AID 2382); assay type: functional;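 also: NIH3T3 fibroblasts with HSF1-driven luciferase reporter stressed by proteasome inhibitor MG132; luminescence from HSF1-driven luciferase expression after 8 hours of MG132 stress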
T4 sequence (P38532 whole entry): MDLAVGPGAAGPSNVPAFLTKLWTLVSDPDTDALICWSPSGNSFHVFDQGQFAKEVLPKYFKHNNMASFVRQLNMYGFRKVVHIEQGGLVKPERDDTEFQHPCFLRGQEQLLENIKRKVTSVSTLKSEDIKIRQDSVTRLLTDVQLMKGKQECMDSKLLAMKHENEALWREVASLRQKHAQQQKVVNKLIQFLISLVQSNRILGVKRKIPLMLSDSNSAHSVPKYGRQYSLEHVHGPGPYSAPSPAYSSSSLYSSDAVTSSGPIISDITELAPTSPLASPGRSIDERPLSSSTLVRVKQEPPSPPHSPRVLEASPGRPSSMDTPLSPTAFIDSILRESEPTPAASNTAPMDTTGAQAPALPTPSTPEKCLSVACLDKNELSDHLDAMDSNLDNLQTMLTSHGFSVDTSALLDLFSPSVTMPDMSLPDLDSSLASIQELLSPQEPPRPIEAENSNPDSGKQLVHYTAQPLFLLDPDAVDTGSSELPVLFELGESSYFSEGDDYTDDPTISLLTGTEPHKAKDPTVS

[27] = target: Polyadenylate-binding protein 1 (Homo sapiens, UniProt P11940); test: PABP poly(A) RNA binding inhibitors, primary screen, biochemical, fluorescence polarization, uHTS (AID 2014)
[28] = target: Eukaryotic translation initiation factor 4H (Homo sapiens, UniProt Q15056); test: human eIF4H binding inhibitors, primary screen, translation initiation inhibitor project, biochemical, uHTS, fluorescence polarization (AID 2012)

T2 sequence (P09923 whole entry): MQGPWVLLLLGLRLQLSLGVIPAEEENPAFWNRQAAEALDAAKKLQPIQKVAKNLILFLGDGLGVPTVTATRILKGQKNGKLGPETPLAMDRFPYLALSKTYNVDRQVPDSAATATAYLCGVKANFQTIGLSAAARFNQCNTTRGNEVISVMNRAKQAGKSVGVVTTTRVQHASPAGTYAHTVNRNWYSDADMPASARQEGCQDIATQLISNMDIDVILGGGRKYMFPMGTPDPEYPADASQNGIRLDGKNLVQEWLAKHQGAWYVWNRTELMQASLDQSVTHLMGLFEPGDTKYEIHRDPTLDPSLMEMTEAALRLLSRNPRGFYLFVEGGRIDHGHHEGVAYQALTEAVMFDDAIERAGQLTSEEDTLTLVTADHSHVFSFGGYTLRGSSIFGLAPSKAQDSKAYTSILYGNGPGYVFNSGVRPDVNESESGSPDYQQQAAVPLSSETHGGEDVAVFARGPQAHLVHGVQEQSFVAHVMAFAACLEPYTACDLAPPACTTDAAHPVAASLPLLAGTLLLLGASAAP
Sequence of Lysosomal acid glucosylceramidase (P04062 whole entry): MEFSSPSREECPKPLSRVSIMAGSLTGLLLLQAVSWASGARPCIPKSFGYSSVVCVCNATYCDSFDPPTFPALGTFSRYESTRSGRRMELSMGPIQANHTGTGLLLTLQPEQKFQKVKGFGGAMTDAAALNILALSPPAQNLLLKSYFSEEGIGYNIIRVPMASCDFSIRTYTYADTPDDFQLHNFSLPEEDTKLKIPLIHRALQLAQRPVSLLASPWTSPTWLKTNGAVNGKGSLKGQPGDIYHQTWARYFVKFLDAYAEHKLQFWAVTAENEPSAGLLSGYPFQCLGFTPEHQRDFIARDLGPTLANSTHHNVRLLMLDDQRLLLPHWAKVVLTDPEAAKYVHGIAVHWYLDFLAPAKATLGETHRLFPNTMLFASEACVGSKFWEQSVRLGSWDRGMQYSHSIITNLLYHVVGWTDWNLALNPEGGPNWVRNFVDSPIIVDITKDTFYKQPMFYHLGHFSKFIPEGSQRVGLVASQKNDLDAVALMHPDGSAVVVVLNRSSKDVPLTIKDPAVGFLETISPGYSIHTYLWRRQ
Sequence of Neuropeptide Y receptor type 2 (P49146 whole entry): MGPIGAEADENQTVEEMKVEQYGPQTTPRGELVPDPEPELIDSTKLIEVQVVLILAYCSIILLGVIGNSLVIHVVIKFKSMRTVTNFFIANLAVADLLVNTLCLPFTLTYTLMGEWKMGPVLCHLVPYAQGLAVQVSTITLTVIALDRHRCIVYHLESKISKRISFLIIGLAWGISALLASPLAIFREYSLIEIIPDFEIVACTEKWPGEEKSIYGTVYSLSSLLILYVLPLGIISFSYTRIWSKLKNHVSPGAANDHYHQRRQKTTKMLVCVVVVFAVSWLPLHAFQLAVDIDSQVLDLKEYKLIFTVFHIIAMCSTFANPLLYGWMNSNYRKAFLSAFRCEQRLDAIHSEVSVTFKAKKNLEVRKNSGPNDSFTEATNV
Sequence of Photoreceptor-specific nuclear receptor (Q9Y5X4 whole entry, the tested form may be a part): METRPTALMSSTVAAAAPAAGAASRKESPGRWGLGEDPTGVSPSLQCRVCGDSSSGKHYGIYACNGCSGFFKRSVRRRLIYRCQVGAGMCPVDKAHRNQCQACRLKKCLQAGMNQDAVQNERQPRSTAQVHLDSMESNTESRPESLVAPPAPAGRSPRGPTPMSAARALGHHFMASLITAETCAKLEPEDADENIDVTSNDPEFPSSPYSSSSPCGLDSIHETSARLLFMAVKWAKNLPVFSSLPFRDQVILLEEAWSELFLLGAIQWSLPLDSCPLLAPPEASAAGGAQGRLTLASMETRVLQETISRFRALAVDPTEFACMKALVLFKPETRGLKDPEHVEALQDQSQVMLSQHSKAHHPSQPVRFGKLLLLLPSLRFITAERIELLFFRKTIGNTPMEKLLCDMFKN
Sequence of Neuropeptide Y receptor type 1 (P25929 whole entry): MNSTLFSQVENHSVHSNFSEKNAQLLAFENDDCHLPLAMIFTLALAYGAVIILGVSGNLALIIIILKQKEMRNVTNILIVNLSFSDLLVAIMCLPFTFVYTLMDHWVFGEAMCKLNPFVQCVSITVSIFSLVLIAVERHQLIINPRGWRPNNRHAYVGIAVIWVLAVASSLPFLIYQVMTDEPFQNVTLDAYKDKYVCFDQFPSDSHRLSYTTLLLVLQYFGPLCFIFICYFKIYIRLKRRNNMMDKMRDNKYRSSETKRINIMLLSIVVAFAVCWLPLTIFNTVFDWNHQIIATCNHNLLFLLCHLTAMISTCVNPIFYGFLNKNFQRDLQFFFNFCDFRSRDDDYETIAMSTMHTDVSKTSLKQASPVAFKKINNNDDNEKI
Sequence of NACHT, LRR and PYD domains-containing protein 3 (Q96P20 whole entry, the tested form may be a part): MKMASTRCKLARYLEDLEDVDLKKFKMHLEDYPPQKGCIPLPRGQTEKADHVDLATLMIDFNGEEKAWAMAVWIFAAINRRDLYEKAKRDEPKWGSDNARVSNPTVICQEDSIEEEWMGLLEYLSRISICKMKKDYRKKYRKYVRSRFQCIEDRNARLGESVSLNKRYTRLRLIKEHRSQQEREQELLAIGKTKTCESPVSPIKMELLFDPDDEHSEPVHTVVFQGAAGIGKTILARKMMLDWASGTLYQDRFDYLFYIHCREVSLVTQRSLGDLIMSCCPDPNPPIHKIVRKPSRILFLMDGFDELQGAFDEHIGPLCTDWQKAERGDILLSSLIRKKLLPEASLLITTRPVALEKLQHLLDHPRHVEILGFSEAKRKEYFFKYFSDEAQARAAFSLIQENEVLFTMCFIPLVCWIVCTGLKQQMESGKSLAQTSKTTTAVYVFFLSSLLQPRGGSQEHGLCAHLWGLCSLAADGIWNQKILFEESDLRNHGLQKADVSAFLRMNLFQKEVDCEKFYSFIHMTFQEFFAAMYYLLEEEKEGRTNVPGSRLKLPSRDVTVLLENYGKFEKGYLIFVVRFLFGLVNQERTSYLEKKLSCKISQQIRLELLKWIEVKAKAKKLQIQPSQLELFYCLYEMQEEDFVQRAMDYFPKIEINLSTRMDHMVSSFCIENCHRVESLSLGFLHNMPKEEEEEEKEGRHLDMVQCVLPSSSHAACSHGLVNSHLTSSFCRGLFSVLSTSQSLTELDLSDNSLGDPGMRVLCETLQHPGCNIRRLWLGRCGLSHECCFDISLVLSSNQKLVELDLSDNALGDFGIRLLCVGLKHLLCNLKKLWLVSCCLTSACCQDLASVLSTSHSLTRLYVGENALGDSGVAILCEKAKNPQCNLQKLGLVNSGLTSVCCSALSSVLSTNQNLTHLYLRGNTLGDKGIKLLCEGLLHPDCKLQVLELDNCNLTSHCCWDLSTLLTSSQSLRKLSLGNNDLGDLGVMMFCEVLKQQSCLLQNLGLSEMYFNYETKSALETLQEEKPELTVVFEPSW
Sequence of Signal transducer and activator of transcription 3 (P40763 whole entry): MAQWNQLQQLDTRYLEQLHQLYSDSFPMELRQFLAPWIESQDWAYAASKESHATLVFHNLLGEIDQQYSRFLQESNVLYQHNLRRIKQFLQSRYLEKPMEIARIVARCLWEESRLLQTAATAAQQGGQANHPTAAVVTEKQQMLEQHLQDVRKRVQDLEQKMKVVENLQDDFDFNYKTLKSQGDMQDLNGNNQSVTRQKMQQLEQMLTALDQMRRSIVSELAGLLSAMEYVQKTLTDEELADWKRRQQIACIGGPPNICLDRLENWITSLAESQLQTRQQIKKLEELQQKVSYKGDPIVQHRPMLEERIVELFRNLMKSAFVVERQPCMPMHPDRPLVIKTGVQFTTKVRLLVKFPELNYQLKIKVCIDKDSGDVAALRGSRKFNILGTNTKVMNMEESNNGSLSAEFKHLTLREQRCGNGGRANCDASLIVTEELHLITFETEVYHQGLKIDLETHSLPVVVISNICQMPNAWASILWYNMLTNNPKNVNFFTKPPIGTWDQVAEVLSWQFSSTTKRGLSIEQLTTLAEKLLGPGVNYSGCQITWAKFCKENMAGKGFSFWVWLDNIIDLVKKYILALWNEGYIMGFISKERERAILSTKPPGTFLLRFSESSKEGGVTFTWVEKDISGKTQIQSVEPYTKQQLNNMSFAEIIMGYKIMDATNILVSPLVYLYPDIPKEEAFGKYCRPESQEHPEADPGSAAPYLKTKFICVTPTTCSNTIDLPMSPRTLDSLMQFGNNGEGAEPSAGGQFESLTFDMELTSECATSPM
Sequence of Oxytocin receptor (P30559 whole entry): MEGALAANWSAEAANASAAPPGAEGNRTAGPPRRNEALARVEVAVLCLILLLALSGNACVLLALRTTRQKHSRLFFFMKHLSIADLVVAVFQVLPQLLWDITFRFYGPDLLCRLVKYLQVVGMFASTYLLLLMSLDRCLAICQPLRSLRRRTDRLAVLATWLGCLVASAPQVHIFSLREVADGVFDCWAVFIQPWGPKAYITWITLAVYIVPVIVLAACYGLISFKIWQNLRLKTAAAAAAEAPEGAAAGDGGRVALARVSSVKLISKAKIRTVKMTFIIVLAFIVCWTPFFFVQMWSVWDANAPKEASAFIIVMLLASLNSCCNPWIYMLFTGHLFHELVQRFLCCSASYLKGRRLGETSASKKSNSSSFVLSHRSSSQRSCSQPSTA
Sequence of Bcl-2-like protein 10 (Q9HD36 whole entry): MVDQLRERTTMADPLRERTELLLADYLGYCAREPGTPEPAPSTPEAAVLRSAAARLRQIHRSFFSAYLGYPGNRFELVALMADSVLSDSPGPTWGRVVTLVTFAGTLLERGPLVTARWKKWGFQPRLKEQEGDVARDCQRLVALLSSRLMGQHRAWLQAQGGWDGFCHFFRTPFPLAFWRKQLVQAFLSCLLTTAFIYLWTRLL

c1ccc(-c2noc(-c3ccc4ccccc4c3)n2)nc1
IC50 [1]: 31.9 µM (not active) | AC50 [2]: 1.98 µM (active) | IC50 [3]: > 80 µM (inactive) | AC50 [4]: 27.6 µM (active) | AC50 [5]: 5.85 µM (active) | IC50 (Protein skinhead-1): > 100 µM (inactive)

COc1ccccc1NC(=O)c1cc(-c2ccccc2)on1
EC50 [6]: 9.62 µM (active)

COc1ccccc1C1=NN(C2=NN=C(N)Cc3ncnn32)C(O)(C(F)(F)F)C1 (stereo unspecified)
EC50 [7]: 7.06 µM (active) | IC50 [8]: 42.2 µM (active) | EC50 [9]: 11.7 µM (active) | EC50 [10]: 9.66 µM (active)

Fc1ccc(Nc2c(-c3ccco3)nc3ccccn23)cc1
EC50 [11]: 10.6 µM (not active) | EC50 [12]: 6.46 µM (active) | EC50 (HEK293): 17.9 µM (not active)

Cc1ccccc1Cn1nnc(C(=O)Nc2cccc(C)c2C)c1N
IC50 [13]: 39.8 µM (inactive) | EC50 (Oxytocin receptor): > 29.9 µM (not active) | EC50 (Vasopressin V1a receptor): > 29.9 µM (not active)

CCCCCC(=O)N1CCN(CC/N=C/C2=C(O)CC(c3ccco3)CC2=O)CC1 (stereo unspecified)
IC50 [14]: 7.3 µM (active)

O=C1CCCCCN1Cc1nnc(SCc2nc3ccccc3s2)n1-c1ccccn1
EC50 [15]: 25 µM (active) | EC50 [16]: 0.207 µM (active) | EC50 [17]: > 195 µM (inactive) | EC50 (H4): 80.9 µM (inconclusive) | EC50 [18]: 1.89 µM (active) | EC50 [19]: 1.08 µM (active)

COc1ccc(OC)c(NC(=O)CCN2CCC(C)CC2)c1
IC50 (Bcl-2-like protein 10): > 100 µM (inactive)

CCC(C)(C)c1ccc(Oc2ccc(N)cc2)cc1
EC50 [20]: 0.476 µM (active) | EC50 (cells): 0.482 µM (active) | EC50 [21]: < 0.1 µM (active) | EC50 [22]: 0.432 µM (active) | EC50 [23]: 0.216 µM (active) | EC50 [24]: < 0.1 µM (active)

CN1C[C@@H]2C(c3ccccc3)C3(c4ccccc4)CC2(C3)[C@H]1c1ccccc1 (stereo partly specified)
AC50 (Cytochrome P450 3A4): 5.01 µM (inconclusive)

CCOC(=O)COc1ccc(-c2nnc(-c3ccccc3)o2)cc1
EC50 [25]: > 10 µM (not active)

COc1ccccc1/N=C1/SCCCN1C
EC50 [26]: > 195 µM (not active) | IC50 [27]: 3.57 µM (active) | IC50 [28]: > 100 µM (inactive)
